Data set [1] can be described thus: Saturation solubility of rivastigmine free base in the silicone adhesive. The class given is physicochemical.
A short description of data set [2]: Rivastigmine's biopharmaceutical properties in humans. The data set is classed as in vivo. The source says: Little has been published in detail on rivastigmine's biopharmaceutical properties in humans. […] It is subject to pre-systemic and systemic metabolism.

Consider 1 compound from patent publication US20140134230A1, “TRANSDERMAL THERAPEUTIC SYSTEM” (priority 2005, published 2014).

Regarding `CCN(C)C(=O)Oc1cccc([C@H](C)N(C)C)c1` [rivastigmine], in data set [1], the “saturation solubility in the silicone adhesive” value is “about 5 %-wt”. Moreover, in data set [2], the absorption result was “rapidly and completely absorbed”; the metabolism result is “metabolised mainly through hydrolysis by esterases”.
